From patent US11053234B2 (GlaxoSmithKline Intellectual Property Development Limited, priority 2016, dated 2021)
Where a name gives a salt, the structure may show the parent alone.

The molecules below were run against T1, haematopoietic prostaglandin D synthase (H-PGDS) (Homo sapiens, UniProt O60760) (assay: H-PGDS RapidFire high throughput mass spectrometry assay (conversion of PGH2 to PGD2)). Conditions: 10 nM H-PGDS, PGH2 formed in situ by COX-2 from arachidonic acid; read-out: Potency Range (mean pIC50) (converted).
T1 construct: Full length human H-PGDS cDNA (Invitrogen Ultimate ORF 10H13026) was amplified by PCR; 6-His (N); TEV protease cleavage site (N); made in house; host or cells: E. coli BL21 (DE3*), vector pET22b+
T1 sequence (O60760 whole entry): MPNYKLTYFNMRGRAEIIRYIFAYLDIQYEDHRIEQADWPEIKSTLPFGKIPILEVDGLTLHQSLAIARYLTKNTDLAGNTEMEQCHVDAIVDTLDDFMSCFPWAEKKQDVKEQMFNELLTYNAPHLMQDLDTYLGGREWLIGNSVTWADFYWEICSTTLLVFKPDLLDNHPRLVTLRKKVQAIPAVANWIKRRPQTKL
Format: biochemical
Procedure, shortened: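 PGH2 substrate generated in situ by COX-2 (full-length human, FLAG-tagged, Sf9-expressed) from arachidonic acid at ˜10 μM, then converted by full-length human His-tagged H-PGDS (E. coli-expressed). RapidFire SPE–triple quadrupole MS measured PGD2 against PGF2α as substrate surrogate to give percent conversion.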
Work on CC(=O)c1cnc(NC(=O)[C@H]2C[C@H](Oc3cccc4ccoc34)C2)s1 [Example 264, (trans)-N-(5-Acetylthiazol-2-yl)-3-(benzofuran-7-yloxy)cyclobutanecarboxamide] yielded an IC50 of 10 to 79.4 nM.
Molecule CC(C)(O)c1cnc(NC(=O)[C@H]2C[C@H](Oc3cccc4ccoc34)C2)s1 [Example 265, (trans)-3-(Benzofuran-7-yloxy)-N-(5-(2-hydroxypropan-2-yl)thiazol-2-yl)cyclobutanecarboxamide] has an IC50 of 10 to 79.4 nM.
With Cc1nnc(NC(=O)[C@H]2C[C@H](Oc3cccc4ccoc34)C2)s1 [Example 266, (trans)-3-(Benzofuran-7-yloxy)-N-(5-methyl-1,3,4-thiadiazol-2-yl)cyclobutanecarboxamide] the IC50 was 10 to 79.4 nM.
In the case of CC(C)(O)[C@H]1CC[C@H](NC(=O)[C@H]2C[C@H](Oc3cccc4ccoc34)C2)CC1 [Example 267, (trans)-3-(Benzofuran-7-yloxy)-N-((trans)-4-(2-hydroxypropan-2-yl)cyclohexyl)cyclobutanecarboxamide], the IC50 is reported as 10 to 79.4 nM.
In the case of CC(C)(O)[C@H]1CC[C@H](NC(=O)[C@H]2C[C@H](Oc3cccc4c3OCC4)C2)CC1 [Example 268, (trans)-3-((2,3-Dihydrobenzofuran-7-yl)oxy)-N-((trans)-4-(2-hydroxypropan-2-yl)cyclohexyl)cyclobutanecarboxamide], the IC50 is reported as 10 to 79.4 nM.
CC(C)(O)[C@H]1CC[C@H](NC(=O)[C@H]2C[C@H](Oc3cccc4c(Br)coc34)C2)CC1 [Example 269, (trans)-3-((3-Bromobenzofuran-7-yl)oxy)-N-((trans)-4-(2-hydroxypropan-2-yl)cyclohexyl)cyclobutanecarboxamide] was tested, and the IC50 was 10 to 79.4 nM.
Cc1coc2c(O[C@H]3C[C@H](C(=O)N[C@H]4CC[C@H](C(C)(C)O)CC4)C3)cccc12 [Example 270, (trans)-N-((trans)-4-(2-Hydroxypropan-2-yl)cyclohexyl)-3-((3-methylbenzofuran-7-yl)oxy)cyclobutanecarboxamide] showed an IC50 of 100 to 1000 nM.
Work on CC(=O)c1csc(NC(=O)[C@H]2C[C@H](Oc3cccc4c(Br)coc34)C2)n1 [Example 271, (trans)-N-(4-Acetylthiazol-2-yl)-3-((3-bromobenzofuran-7-yl)oxy)cyclobutanecarboxamide] yielded an IC50 of 10 to 79.4 nM.
With CC(=O)c1csc(NC(=O)[C@H]2C[C@H](Oc3cc(Cl)ccc3OC(F)F)C2)n1 [Example 272, (trans)-N-(4-Acetylthiazol-2-yl)-3-(5-chloro-2-(difluoromethoxy)phenoxy)cyclobutanecarboxamide] the IC50 was 10 to 79.4 nM.
CC(C)(O)[C@H]1CC[C@H](NC(=O)[C@H]2C[C@H](Oc3cc(Cl)ccc3OC(F)F)C2)CC1 [Example 273, (trans)-3-(5-Chloro-2-(difluoromethoxy)phenoxy)-N-((trans)-4-(2-hydroxypropan-2-yl)cyclohexyl)cyclobutanecarboxamide] gave an IC50 of 10 to 79.4 nM.
COc1ccc(Cl)cc1O[C@H]1C[C@H](C(=O)Nc2nc(C(C)=O)cs2)C1 [Example 274, (trans)-N-(4-Acetylthiazol-2-yl)-3-(5-chloro-2-methoxyphenoxy)cyclobutanecarboxamide] was tested, and the IC50 was < 10 nM.
With COc1ccc(Cl)cc1O[C@H]1C[C@H](C(=O)N[C@H]2CC[C@H](C(C)(C)O)CC2)C1 [Example 275, (trans)-3-(5-Chloro-2-methoxyphenoxy)-N-((trans)-4-(2-hydroxypropan-2-yl)cyclohexyl)cyclobutanecarboxamide] the IC50 was 10 to 79.4 nM.
Molecule COc1cc(F)ccc1O[C@H]1C[C@H](C(=O)Nc2nc(C(C)=O)cs2)C1 [Example 276, (trans)-N-(4-Acetylthiazol-2-yl)-3-(4-fluoro-2-methoxyphenoxy)cyclobutanecarboxamide] has an IC50 of 10 to 79.4 nM.
Work on COc1cc(F)ccc1O[C@H]1C[C@H](C(=O)N[C@H]2CC[C@H](C(C)(C)O)CC2)C1 [Example 277, (trans)-3-(4-Fluoro-2-methoxyphenoxy)-N-((trans)-4-(2-hydroxypropan-2-yl)cyclohexyl)cyclobutanecarboxamide] yielded an IC50 of 100 to 1000 nM.
CC(C)(O)[C@H]1CC[C@H](NC(=O)[C@H]2C[C@H](Oc3ccccc3OC(F)F)C2)CC1 [Example 278, (trans)-3-(2-(Difluoromethoxy)phenoxy)-N-((trans)-4-(2-hydroxypropan-2-yl)cyclohexyl)cyclobutanecarboxamide] gave an IC50 of 10 to 79.4 nM.
With CC(=O)c1csc(NC(=O)[C@H]2C[C@H](Oc3ccccc3OC(F)F)C2)n1 [Example 279] the IC50 was 10 to 79.4 nM.
Molecule CC(C)(O)[C@H]1CC[C@H](NC(=O)[C@H]2C[C@H](Oc3cccc4cc(F)cnc34)C2)CC1 [Example 280, (trans)-3-((3-Fluoroquinolin-8-yl)oxy)-N-((trans)-4-(2-hydroxypropan-2-yl)cyclohexyl)cyclobutanecarboxamide] has an IC50 of 100 to 1000 nM.
O=C(Nc1nccs1)[C@H]1C[C@H](Oc2cccc3cc(F)cnc23)C1 [Example 281, (trans)-3-((3-Fluoroquinolin-8-yl)oxy)-N-(thiazol-2-yl)cyclobutanecarboxamide] gave an IC50 of 10 to 79.4 nM.
Molecule CC(C)(O)[C@H]1CC[C@H](NC(=O)[C@H]2C[C@H](Oc3ccccc3Cl)C2)CC1 [Example 282, (trans)-3-(2-Chlorophenoxy)-N-((trans)-4-(2-hydroxypropan-2-yl)cyclohexyl)cyclobutanecarboxamide] has an IC50 of 100 to 1000 nM.
CC(C)(O)[C@H]1CC[C@H](NC(=O)[C@H]2C[C@H](Oc3cc(F)cc(F)c3)C2)CC1 [Example 283, (trans)-3-(3,5-Difluorophenoxy)-N-((trans)-4-(2-hydroxypropan-2-yl)cyclohexyl)cyclobutanecarboxamide] gave an IC50 of 100 to 1000 nM.
COc1ccccc1O[C@H]1C[C@H](C(=O)N[C@H]2CC[C@H](C(C)(C)O)CC2)C1 [Example 284, (trans)-N-((trans)-4-(2-hydroxypropan-2-yl)cyclohexyl)-3-(2-methoxyphenoxy)cyclobutanecarboxamide] gave an IC50 of 10 to 79.4 nM.
CCc1cccc(O[C@H]2C[C@H](C(=O)N[C@H]3CC[C@H](C(C)(C)O)CC3)C2)c1 [Example 285, (trans)-3-(3-Ethylphenoxy)-N-((trans)-4-(2-hydroxypropan-2-yl)cyclohexyl)cyclobutanecarboxamide] showed an IC50 of 100 to 1000 nM.
O=C(Nc1nccs1)[C@H]1C[C@H](Oc2cccc(Cl)c2)C1 [Example 287, (trans)-3-(3-Chlorophenoxy)-N-(thiazol-2-yl)cyclobutanecarboxamide] gave an IC50 of 10 to 79.4 nM.
Molecule CC(C)(O)[C@H]1CC[C@H](NC(=O)[C@H]2C[C@H](Oc3cccc(Cl)c3)C2)CC1 [Example 288, (trans)-3-(3-Chlorophenoxy)-N-((trans)-4-(2-hydroxypropan-2-yl)cyclohexyl)cyclobutanecarboxamide] has an IC50 of 100 to 1000 nM.
Work on CC(C)(O)[C@H]1CC[C@H](NC(=O)[C@H]2C[C@H](Oc3cccc(F)c3)C2)CC1 [Example 289, (trans)-3-(3-Fluorophenoxy)-N-((trans)-4-(2-hydroxypropan-2-yl)cyclohexyl)cyclobutanecarboxamide] yielded an IC50 of 100 to 1000 nM.
In the case of CC(C)(O)[C@H]1CC[C@H](NC(=O)[C@H]2C[C@H](Oc3cc(F)cc(Cl)c3)C2)CC1 [Example 290, (trans)-3-(3-Chloro-5-fluorophenoxy)-N-((trans)-4-(2-hydroxypropan-2-yl)cyclohexyl)cyclobutanecarboxamide], the IC50 is reported as 100 to 1000 nM.
O=C(Nc1nccs1)[C@H]1C[C@H](Oc2ccc(F)c3cccnc23)C1 [Example 291, (trans)-3-((5-Fluoroquinolin-8-yl)oxy)-N-(thiazol-2-yl)cyclobutanecarboxamide, trifluoroacetic acid salt] gave an IC50 of 100 to 1000 nM.
